Data on 3 compounds can be found in US8735436B2, “Polyunsaturated fatty acids for the treatment of diseases related to cardiovascular, metabolic and inflammatory disease areas” (Pronova Biopharma Norge AS, priority 2009, dated 2014).

Molecules are shown by their SMILES.

Broadly, the EC50 is the concentration at which the effect is half-maximal.

Holding throughout (experiment): PPAR activation in vitro, mammalian-one-hybrid (M1H) GAL4-PPAR-LBD luciferase reporter assay
Holding throughout (type): cell-based

For one experiment, the target named is T1, PPARα (Homo sapiens, UniProt Q07869).
T1 construct: expressed in transfected cells; host or cells: HEK293
T1 sequence (Q07869 239-466 limits assumed): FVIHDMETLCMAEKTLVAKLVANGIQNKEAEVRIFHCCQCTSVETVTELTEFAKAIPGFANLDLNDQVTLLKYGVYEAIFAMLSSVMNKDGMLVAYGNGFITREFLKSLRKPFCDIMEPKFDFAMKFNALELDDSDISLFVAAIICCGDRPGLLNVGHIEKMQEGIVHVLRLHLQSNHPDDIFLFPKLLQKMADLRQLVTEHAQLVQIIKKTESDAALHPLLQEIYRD
The following applies: for PPARα Efficacy: HEK293 cells, efficacy of positive control (GW7647) set to 100%; for EC50: transiently transfected HEK293 cells, compound incubation 16-20 h, six concentrations in duplicate. Here is the method:
(§1) The assays were carried out in vitro using mammalian-one-hybrid assays (M1H) comprising GAL4-DNA binding domain-PPAR-LBD fusion constructs in conjunction with 5×GAL4-sites driven Photinus pyralis luciferase reporter constructs in transiently transfected HEK293 cells.
(§2) The cells were transfected 4-6 h and grown overnight before compounds were added. Compound incubation was 16-20 h.
(§3) Renilla reniformis luciferase, driven by a constitutive promoter, was included as internal control to improve experimental accuracy.
(§4) The compounds (A-C) and a positive control were tested at six different concentrations in duplicate. The positive controls were GW7647 (PPARα), GW501516 (PPARδ) and rosiglitazone (PPARγ). The efficacy of the controls were set to 100%.

The target in another experiment is T2, PPARγ (Homo sapiens, UniProt P37231).
T2 construct: expressed in transfected cells; host or cells: HEK293
T2 sequence (P37231 238-503 limits assumed): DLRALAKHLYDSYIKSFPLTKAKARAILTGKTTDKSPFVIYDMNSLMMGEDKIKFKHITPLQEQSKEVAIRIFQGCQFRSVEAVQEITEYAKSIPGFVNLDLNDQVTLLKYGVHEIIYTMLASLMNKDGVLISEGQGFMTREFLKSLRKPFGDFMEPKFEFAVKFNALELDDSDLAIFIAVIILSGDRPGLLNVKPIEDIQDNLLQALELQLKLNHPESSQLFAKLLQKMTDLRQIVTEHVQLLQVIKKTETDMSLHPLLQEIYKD
To be noted: for PPARγ Efficacy: HEK293 cells, efficacy of positive control (rosiglitazone) set to 100%; for EC50: transiently transfected HEK293 cells, compound incubation 16-20 h, six concentrations in duplicate. Here is the method:
as §1, §2, §3, §4

A further experiment deals with T3, PPARδ (Homo sapiens, UniProt Q03181).
T3 construct: expressed in transfected cells; host or cells: HEK293
T3 sequence (Q03181 211-439 limits assumed): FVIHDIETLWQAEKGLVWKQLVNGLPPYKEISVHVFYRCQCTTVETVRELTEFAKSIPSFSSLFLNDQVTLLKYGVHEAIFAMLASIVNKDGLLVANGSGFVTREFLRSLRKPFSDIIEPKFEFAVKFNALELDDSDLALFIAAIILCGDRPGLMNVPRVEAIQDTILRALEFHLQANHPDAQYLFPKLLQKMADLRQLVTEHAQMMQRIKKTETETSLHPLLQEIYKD
The following applies: for PPARδ Efficacy: HEK293 cells, efficacy of positive control (GW501516) set to 100%; for PPARδ EC50: transiently transfected HEK293 cells, compound incubation 16-20 h, six concentrations in duplicate. Here is the method: as §1, §2, §3, §4

Consider `CC/C=C\C/C=C\C/C=C\C/C=C\C/C=C\CCCCOC(CC)C(=O)O` (stereo not drawn) [A], for which, on PPARα, the “PPARα Efficacy” value stood at 82% and the response was half-maximal at 307 nM (EC50). For the same compound, at PPARγ, the “PPARγ Efficacy” value is 22% and a half-maximal effect (EC50) was put at 806 nM. Also, at PPARδ, the “PPARδ Efficacy” value is “inactive” and the “PPARδ EC50” value is “inactive”.
Consider `CC/C=C\C/C=C\C/C=C\C/C=C\C/C=C\CCCCO[C@@H](CC)C(=O)O` [B], for which, on PPARα, the “PPARα Efficacy” value is reported as 86% and a half-maximal effect (EC50) was put at 405 nM. For the same compound, on PPARγ, the “PPARγ Efficacy” value was determined as 27% and the EC50 was determined as 644 nM. Further, on PPARδ, the “PPARδ Efficacy” value is “inactive” and the “PPARδ EC50” value is “inactive”.
With `CC/C=C\C/C=C\C/C=C\C/C=C\C/C=C\CCCCO[C@H](CC)C(=O)O` [C], at PPARα, the “PPARα Efficacy” value is reported as 54% and a half-maximal response (EC50) required 167 nM. Also, at PPARγ, the “PPARγ Efficacy” value is recorded as 25% and the 50% effective concentration (EC50) amounted to 515 nM. Also, on PPARδ, the “PPARδ Efficacy” value was “inactive” and the “PPARδ EC50” value was “inactive”.
